Experiment [1] concerns the target Microtubule-associated protein tau (Homo sapiens, UniProt P10636). The experiment in a line: Inhibition of recombinant human microtubule associated protein tau aggregation by Thiazin-red R displacement fluorescence assay.
The target of experiment [2] is Amyloid-beta precursor protein (Homo sapiens, UniProt P05067). Description: Inhibition of amyloid beta (unknown origin) aggregation by Thiazin-red R displacement fluorescence assay.

Among the data in ChEMBL document CHEMBL3286307, “Imidazo[2,1]thiazol-3-one Derivatives Useful as Diagnostic Agents for Alzheimer's Disease” (ACS Med Chem Lett, 2014) are IC50 values, retold here.

Where only a bound is given, the exact number is not on record here.

Sequence of Amyloid-beta precursor protein (P05067 whole entry): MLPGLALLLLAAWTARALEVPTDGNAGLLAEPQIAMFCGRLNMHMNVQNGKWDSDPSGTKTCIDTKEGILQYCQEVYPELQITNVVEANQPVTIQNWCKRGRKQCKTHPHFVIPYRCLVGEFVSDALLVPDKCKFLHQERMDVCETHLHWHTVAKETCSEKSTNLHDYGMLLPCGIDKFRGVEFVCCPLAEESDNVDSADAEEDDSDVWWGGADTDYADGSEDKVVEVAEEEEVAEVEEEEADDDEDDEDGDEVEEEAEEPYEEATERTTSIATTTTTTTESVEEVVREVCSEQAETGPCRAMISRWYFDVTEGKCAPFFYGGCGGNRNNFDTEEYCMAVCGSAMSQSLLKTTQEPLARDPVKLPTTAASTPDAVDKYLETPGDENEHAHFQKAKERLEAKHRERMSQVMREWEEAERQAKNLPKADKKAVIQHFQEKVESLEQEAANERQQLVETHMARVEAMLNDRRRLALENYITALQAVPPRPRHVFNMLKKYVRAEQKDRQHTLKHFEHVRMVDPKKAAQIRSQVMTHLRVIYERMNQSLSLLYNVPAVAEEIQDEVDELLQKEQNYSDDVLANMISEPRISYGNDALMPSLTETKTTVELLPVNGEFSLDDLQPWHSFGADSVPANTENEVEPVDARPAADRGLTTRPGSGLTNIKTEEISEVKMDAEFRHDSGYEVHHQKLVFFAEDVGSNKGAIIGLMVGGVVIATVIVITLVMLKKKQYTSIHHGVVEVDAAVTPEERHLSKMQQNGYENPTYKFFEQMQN
Sequence of Microtubule-associated protein tau (P10636 whole entry): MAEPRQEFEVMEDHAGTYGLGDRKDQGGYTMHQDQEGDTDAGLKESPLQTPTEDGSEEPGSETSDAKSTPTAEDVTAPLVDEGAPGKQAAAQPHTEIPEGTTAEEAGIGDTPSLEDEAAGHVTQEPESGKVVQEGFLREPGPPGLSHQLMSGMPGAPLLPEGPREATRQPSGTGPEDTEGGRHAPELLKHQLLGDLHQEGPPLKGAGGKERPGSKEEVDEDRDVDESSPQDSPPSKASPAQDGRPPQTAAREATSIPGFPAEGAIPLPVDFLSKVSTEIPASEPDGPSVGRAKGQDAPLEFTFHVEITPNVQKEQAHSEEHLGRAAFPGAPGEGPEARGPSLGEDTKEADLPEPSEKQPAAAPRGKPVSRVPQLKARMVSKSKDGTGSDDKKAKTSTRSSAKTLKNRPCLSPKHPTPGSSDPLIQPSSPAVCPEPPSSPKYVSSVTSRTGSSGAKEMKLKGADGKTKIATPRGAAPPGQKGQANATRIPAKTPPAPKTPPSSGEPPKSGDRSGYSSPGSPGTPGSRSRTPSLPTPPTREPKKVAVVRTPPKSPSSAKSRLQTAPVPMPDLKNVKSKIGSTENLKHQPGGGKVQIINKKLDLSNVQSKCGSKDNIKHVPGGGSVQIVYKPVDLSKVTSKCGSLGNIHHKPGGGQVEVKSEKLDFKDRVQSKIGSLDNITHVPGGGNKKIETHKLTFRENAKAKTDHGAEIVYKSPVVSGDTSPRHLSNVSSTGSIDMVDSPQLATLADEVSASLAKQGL

Regarding `COc1cc(/C=c2\sc3nc(-c4ccncc4C)cn3c2=O)ccc1O`, the results for the IC50 in experiment [1] and in experiment [2] were 79 nM and greater than 10000 nM, respectively.
In the same order, the values of `COc1cc(/C=c2\sc3nc(-c4ccncc4C)cn3c2=O)cc(OC)c1O` are 8 nM and 32 nM.
As to `COc1cc(/C=c2\sc3nc(-c4cccc(OC(F)(F)F)c4)cn3c2=O)cc(F)c1O`, the half-inhibitory concentration (IC50) in experiment [2] was greater than 10000 nM.

As usually defined, the IC50 is the concentration needed to halve the response being measured.
